Experimental data from patent US8071652B2, “Method of treating irritable bowel syndrome” (The Board of Regents of the University of Texas System, priority 2003, dated 2011).
Entries after “also recorded” stand apart in the source; their conditions may differ.

Tests used:
Myeloperoxidase (MPO) = Myeloperoxidase (MPO) assay of colon extracts; format: in vivo, rat; details: sensitized rats, 5 mg/kg i.p. for four days
Method: Descending colons were placed in 10% buffered formalin and portions were frozen for myeloperoxidase (MPO) assays. Haematoxilin & Eosin stained parafin sections will be scored for inflammation by a pathologist.
Myeloperoxidase (MPO) assays were performed as described (Bhatia et al., Proc Natl Acad Sci USA 95:4760-4756, 1998). Frozen colon was homogenized in 20 mM phosphate buffer pH 7.4 and cetrifuged at 10,000× g for 10 minutes at 4° C. Pellet was resuspended in 50 mM phosphate buffer, pH 6.0 containing 0.5% hexadecyltrimethylammonium bromide. Samples were subjected to one cycle of freeze thawing, were incubated at 6° C. for 2 hrs and cetrifuged at 10,000× g for 5 min at 4° C. Change in absorbance at 655 nm was measured in reaction mix containing 1.6 mM TMB (Sigma) and 0.3 mM H2O2 on a Beckman DU-64 spectrophotometer. Activity was normalized to protein as measured in the extracts. Protein was measured by the BCA method (Pierce, Rockford, Ill.). Activity was expressed as the change in absorbance/min/mg protein.

sensitized rats = experiment: Colorectal distention (CRD) sensitivity in visceral sensitization model; format: in vivo, rat
Method: New born rats were sensitized by infusion of 0.2 mls of 0.5% acetic acid into the colon at P10, control animals received saline.
At eight weeks of age, rats in four treatment groups: control+vehicle (n=3), control+cni-1493 (n=3), sensitized+vehicle (n=8), sensitized+cni-1493 (n=8) were tested after administration of drug (dissolved in 2.5% mannitol, injected i.p. at 5mg/kg for four days) for sensitivity to colorectal distention (CRD). Vehicle injected animals received 2.5% mannitol in water.
For electromyographic (EMG) measurements of visceromotor responses, under anesthesia (Nembutal, 50 mg/kg i.p.), two electrodes were implanted in the abdominal wall muscles and externalized behind the head. Rats were allowed a one week recovery time from this surgery. Under mild sedation (Brevital, […]), a 7 cm flexible balloon constructed from a surgical glove finger attached to tygon tubing was inserted into the descending colon and rectum via the anus and held in place by taping the tubing to the tail. Rats were housed in small Lucite cubicles (20×8×8 cm) and were allowed to adapt for one hour. CRD was performed by rapidly inflating the balloon to constant pressure. Pressure was measured using a sphygmomanometer connected to a pressure transducer. Rats were given graded CRD (20, 40, 60, 80 mm Hg) applied for 20 seconds every 4 minutes. […]

Q: How did the “MPO activity in colon” value (Myeloperoxidase (MPO)) turn out when `CC(=NN=C(N)N)c1cc(NC(=O)CCCCCCCCC(=O)Nc2cc(C(C)=NN=C(N)N)cc(C(C)=NN=C(N)N)c2)cc(C(C)=NN=C(N)N)c1.Cl.Cl.Cl.Cl` [CNI-1493, N,N′-bis[3,5-diacetylphenl] decanediamidetetrakis[amidinohydrazone] tetrahvdrochloride] was run?
A: significantly lowered

Q: And the “Chronic visceral hypersensitivity (CVH)” value (sensitized rats; sensitized animals, CNI1493 treatment)?
A: ameliorates CVH

Q: What about the “Sensitivity to CRD” value (sensitized rats; sensitized rats, 5 mg/kg i.p. for four days, graded CRD, vs vehicle, 5 mg/kg) of the same compound?
A: significant effect; also recorded: significantly reduced
